In patent US8420653B2, “Pyrimidine compounds and their uses” (Orchid Chemicals & Pharmaceuticals Limited, priority 2008, dated 2013):

Columns and labels:
[1] = test system: IL-6; assay: In vitro measurement of Interleukin-6 in human PBMC; type: cell-based; settings: Table XVa summary
Protocol: In Vitro Measurement of Interleukin-6 (IL-6)
This assay determines the effect of test compounds on the production of IL-6 in human PBMC (Physiol. Res. 52, 593-598, 2003). Compounds were tested for their ability to inhibit the activity of IL-6 in human PBMC. PBMC were isolated from blood using BD Vacutainer CPT™ Cell preparation tube (BD Bio Science) and suspended in RPMI medium. The test compounds were pre-incubated with PBMC (0.5 million/incubation well) for 15 minutes at 37° C. and then stimulated with Lipopolysaccharide (Escherichia coli: B4; 1 μg/ml) for 18 hours at 37° C. in 5% CO2. The levels of IL-6 in cell culture medium were estimated using enzyme-linked immunosorbent assay performed in a 96 well format as per the procedure of the manufacturer (Cayman Chemical, Ann Arbor, USA).

[2] = test system: Oxazolone induced dermatitis; assay: Psoriasis model, oxazolone induced dermatitis; type: in vivo, mice; settings: Table XVb summary, dermatitis model not specified
Protocol: Inhibitory Activity in Psoriasis Model Oxazolone induced dermatitis in mice was performed as described in the literature. Female Balb/c were selected in the age of 6-7 weeks for the study and 20-25 g. Mice were sensitized with oxazolone (15%) from Day 1 to day 6 by applying it on the shaved abdomen. Elicitation was done with oxazolone (2%) on the ear on day 7. Test compounds were applied topically on the ear 15 minutes and 6 hours post oxazolone application on day 7. 24 hours after oxazolone application, ear thickness is measured and ear were excised under anesthesia and weighed.

SMILES | IL-6 at 10 μm [1] | Psoriasis Ear thickness [2]
CCOC(=O)C1CCN(c2nc(C(F)(F)F)nc(-c3ccc(F)cc3)c2-c2cccc(S(N)(=O)=O)c2)CC1 [Example 59, Ethyl-1-[5-(3-aminosulfonylphenyl)-6-(4-fluorophenyl)-2-(trifluoromethyl)pyrimidin-4-yl]piperidine-4-carboxylate] | 37 | 
NS(=O)(=O)c1cccc(-c2c(-c3ccc(F)cc3)nc(C(F)(F)F)nc2-n2ccnc2)c1 [Example 80, 3-[4-(4-Fluorophenyl)-6-(1H-imidazol-1-yl)-2-(trifluoromethyl)pyrimidin-5-yl]benzenesulfonamide] |  | 19
